Tests used:
HT-29 = test: Cytotoxicity against human HT-29 cells after 96 hrs by sulforhodamine-B assay; assay type: functional, cell-based; settings: HT-29, 96 h
MCF7 = test: Cytotoxicity against human MCF7 cells after 96 hrs by sulforhodamine-B assay; assay type: functional, cell-based; settings: MCF7, 96 h
518A2 = test: Cytotoxicity against human 518A2 cells after 96 hrs by sulforhodamine-B assay; assay type: functional, cell-based; settings: 518A2, 96 h
A2780 [1] = test: Cytotoxicity against human A2780 cells after 96 hrs by sulforhodamine-B assay; assay type: functional, cell-based; settings: A2780, 96 h
A549 = test: Cytotoxicity against human A549 cells after 96 hrs by sulforhodamine-B assay; assay type: functional, cell-based; settings: A549, 96 h
FaDu = test: Cytotoxicity against human FADU cells after 96 hrs by sulforhodamine-B assay; assay type: functional, cell-based
NIH3T3 = test: Cytotoxicity against mouse NIH/3T3 cells after 96 hrs by sulforhodamine-B assay; assay type: cell-based; settings: NIH3T3, 96 h
A2780 [2] = test: Cytotoxicity against human A2780 cells assessed as morphological changes after 48 hrs by acridine orange/propidium iodide staining based fluorescence microscopic method; assay type: functional, cell-based
[3] = Selectivity index, ratio of EC50 for mouse NIH/3T3 cells to EC50 for human A2780 cells; assay type: toxicity; settings: NIH/3T3 cells and A2780 cells, read-out: Ratio EC50
A2780 [4] = test: Cell cycle arrest in human A2780 cells assessed as accumulation at sub-G1 phase at 2 uM after 48 hrs by propidium iodide/RNase-staining based flow cytometric analysis; assay type: functional
A2780 [5] = test: Cell cycle arrest in human A2780 cells assessed as accumulation at G0/G1 phase at 2 uM after 48 hrs by propidium iodide/RNase-staining based flow cytometric analysis (reference value: 57.5 +/- 4.5%); assay type: functional
A2780 [6] = test: Cell cycle arrest in human A2780 cells assessed as accumulation at S phase at 2 uM after 48 hrs by propidium iodide/RNase-staining based flow cytometric analysis (reference value: 29.6 +/- 3.1%); assay type: functional
A2780 [7] = test: Cell cycle arrest in human A2780 cells assessed as accumulation at G2/M phase at 2 uM after 48 hrs by propidium iodide/RNase-staining based flow cytometric analysis (reference value: 12.9 +/- 1.4%); assay type: functional
A2780 [8] = test: Cell cycle arrest in human A2780 cells assessed as accumulation at sub-G1 phase at 1.2 uM after 48 hrs by propidium iodide/RNase-staining based flow cytometric analysis; assay type: functional
A2780 [9] = test: Cell cycle arrest in human A2780 cells assessed as accumulation at G0/G1 phase at 1.2 uM after 48 hrs by propidium iodide/RNase-staining based flow cytometric analysis (reference value: 57.5 +/- 4.5%); assay type: functional
A2780 [10] = test: Cell cycle arrest in human A2780 cells assessed as accumulation at S phase at 1.2 uM after 48 hrs by propidium iodide/RNase-staining based flow cytometric analysis (reference value: 29.6 +/- 3.1%); assay type: functional
A2780 [11] = test: Cell cycle arrest in human A2780 cells assessed as accumulation at G2/M phase at 1.2 uM after 48 hrs by propidium iodide/RNase-staining based flow cytometric analysis (reference value: 12.9 +/- 1.4%); assay type: functional
A2780 [12] = test: Induction of apoptosis in human A2780 cells assessed as vital cells at 2 uM after 48 hrs by Annexin V-FITC/propidium iodide staining-based flow cytometric analysis (reference value: 78.4 +/- 2.1%); assay type: functional
A2780 [13] = test: Induction of apoptosis in human A2780 cells assessed as apoptotic cells at 2 uM after 48 hrs by Annexin V-FITC/propidium iodide staining-based flow cytometric analysis (reference value: 2.8 +/- 2.1%); assay type: functional
A2780 [14] = test: Induction of apoptosis in human A2780 cells assessed as secondary necrotic cells at 2 uM after 48 hrs by Annexin V-FITC/propidium iodide staining-based flow cytometric analysis (reference value: 8.2 +/- 0.7%); assay type: functional
A2780 [15] = test: Induction of apoptosis in human A2780 cells assessed as necrotic cells at 2 uM after 48 hrs by Annexin V-FITC/propidium iodide staining-based flow cytometric analysis (reference value: 10.6 +/- 1.2%); assay type: functional
A2780 [16] = test: Induction of apoptosis in human A2780 cells assessed as vital cells at 1.2 uM after 48 hrs by Annexin V-FITC/propidium iodide staining-based flow cytometric analysis (reference value: 78.4 +/- 2.1%); assay type: functional
A2780 [17] = test: Induction of apoptosis in human A2780 cells assessed as apoptotic cells at 1.2 uM after 48 hrs by Annexin V-FITC/propidium iodide staining-based flow cytometric analysis (reference value: 2.8 +/- 2.1%); assay type: functional
A2780 [18] = test: Induction of apoptosis in human A2780 cells assessed as secondary necrotic cells at 1.2 uM after 48 hrs by Annexin V-FITC/propidium iodide staining-based flow cytometric analysis (reference value: 8.2 +/- 0.7%); assay type: functional
A2780 [19] = test: Induction of apoptosis in human A2780 cells assessed as necrotic cells at 1.2 uM after 48 hrs by Annexin V-FITC/propidium iodide staining-based flow cytometric analysis (reference value: 10.6 +/- 1.2%); assay type: functional

| Structure (SMILES) | EC50 (HT-29) | EC50 (MCF7) | EC50 (518A2) | EC50 (A2780 [1]) | EC50 (A549) | EC50 (FaDu) | EC50 (NIH3T3) | selectivity ratio [3] | further results |
| --- | --- | --- | --- | --- | --- | --- | --- | --- | --- |
| CC(=O)O[C@@H]1C[C@]2(C)[C@H]3CC=C4[C@@H]5CC(C)(C)CC[C@]5(C(=O)N(CC(=O)NCc5ccccc5)Cc5ccccc5)CC[C@@]4(C)[C@]3(C)CC[C@H]2C(C)(C)[C@H]1OC(C)=O | 2.1 µM | 2.1 µM | 1.2 µM | 0.3 µM | 2.2 µM | 2.1 µM | 21.9 µM | 73 | Activity (A2780 [2]): Dose-dependent effect; Activity (A2780 [4]): 4.6%; Activity (A2780 [5]): 60.3%; Activity (A2780 [6]): 30.7%; Activity (A2780 [7]): 5.1%; Activity (A2780 [8]): 6.8%; Activity (A2780 [9]): 57.1%; Activity (A2780 [10]): 28.7%; Activity (A2780 [11]): 7.6%; Activity (A2780 [12]): 55.1%; Activity (A2780 [13]): 8.4%; Activity (A2780 [14]): 19.8%; Activity (A2780 [15]): 16.7%; Activity (A2780 [16]): 72.7%; Activity (A2780 [17]): 4.2%; Activity (A2780 [18]): 11.5%; Activity (A2780 [19]): 11.6% |
| C=CCN(CC(=O)NCCCC)C(=O)[C@]12CCC(C)(C)C[C@H]1C1=CC[C@@H]3[C@@]4(C)CC[C@H](OC(C)=O)C(C)(C)[C@@H]4CC[C@@]3(C)[C@]1(C)CC2 | > 30 µM | > 30 µM | 15 µM | 3.1 µM | > 30 µM | 16.1 µM | > 30 µM |  |  |
| C=CCN(CC(=O)NCC(=O)OC)C(=O)[C@]12CCC(C)(C)C[C@H]1C1=CC[C@@H]3[C@@]4(C)CC[C@H](OC(C)=O)C(C)(C)[C@@H]4CC[C@@]3(C)[C@]1(C)CC2 | 11.1 µM | 4.6 µM | 7.7 µM | 3.5 µM | 6.3 µM | 12.2 µM | 7.3 µM | 2.1 |  |
| CC(=O)O[C@@H]1C[C@]2(C)[C@H]3CC=C4[C@@H]5CC(C)(C)CC[C@]5(C(=O)N(CC(=O)NCc5ccccc5)Cc5ccoc5)CC[C@@]4(C)[C@]3(C)CC[C@H]2C(C)(C)[C@H]1OC(C)=O | 9.9 µM | 3.4 µM | 13.1 µM | 2.1 µM | 5.4 µM | 14.1 µM | 6.5 µM |  |  |
| CCCCN(CC(=O)NCc1ccccc1)C(=O)[C@]12CCC(C)(C)C[C@H]1C1=CC[C@@H]3[C@@]4(C)CC[C@H](OC(C)=O)C(C)(C)[C@@H]4CC[C@@]3(C)[C@]1(C)CC2 | > 30 µM | > 30 µM | 8.2 µM | 4.4 µM | > 30 µM | 19.8 µM | > 30 µM |  |  |
| CC(=O)O[C@H]1CC[C@]2(C)[C@H]3CC=C4[C@@H]5CC(C)(C)CC[C@]5(C(=O)N(CC(=O)NC(C)(C)C)Cc5cccc(F)c5)CC[C@@]4(C)[C@]3(C)CC[C@H]2C1(C)C | > 30 µM | > 30 µM | > 30 µM | 10.4 µM | > 30 µM | > 30 µM | > 30 µM |  |  |
| C=CCN(CC(=O)NC(C)(C)C)C(=O)[C@]12CCC(C)(C)C[C@H]1C1=CC[C@@H]3[C@@]4(C)CC[C@H](OC(C)=O)C(C)(C)[C@@H]4CC[C@@]3(C)[C@]1(C)CC2 | > 30 µM | 12.1 µM | 22.5 µM | 12.5 µM | 24.2 µM | > 30 µM | > 30 µM |  |  |
| CC(=O)O[C@H]1CC[C@]2(C)[C@H]3CC=C4[C@@H]5CC(C)(C)CC[C@]5(C(=O)OCC(=O)NCc5ccccc5)CC[C@@]4(C)[C@]3(C)CC[C@H]2C1(C)C | 11.3 µM | 6.4 µM | 7.7 µM | 6.8 µM | 6.9 µM | 7.2 µM | 6.4 µM |  |  |
| CCCCNC(=O)CN(Cc1ccccc1)C(=O)[C@]12CCC(C)(C)C[C@H]1C1=CC[C@@H]3[C@@]4(C)CC[C@H](OC(C)=O)C(C)(C)[C@@H]4CC[C@@]3(C)[C@]1(C)CC2 | > 30 µM | 22.1 µM | > 30 µM | 3 µM | > 30 µM | 22.7 µM | > 30 µM |  |  |
| CC(=O)O[C@H]1CC[C@]2(C)[C@H]3CC=C4[C@@H]5CC(C)(C)CC[C@]5(C(=O)N(CC(=O)NC(C)(C)C)Cc5ccccc5)CC[C@@]4(C)[C@]3(C)CC[C@H]2C1(C)C | > 30 µM | 14.1 µM | 15 µM | 2.7 µM | > 30 µM | 16 µM | > 30 µM | > 11 |  |
| C=CCN(CC(=O)NC(C)(C)C)C(=O)[C@]12CCC(C)(C)C[C@H]1C1=CC[C@@H]3[C@@]4(C)C[C@@H](OC(C)=O)[C@H](OC(C)=O)C(C)(C)[C@@H]4CC[C@@]3(C)[C@]1(C)CC2 | 3.9 µM | 4.1 µM | 2.9 µM | 0.5 µM | 4.4 µM | 4.8 µM | 7.8 µM |  | Activity (A2780 [4]): 5.3%; Activity (A2780 [5]): 56.8%; Activity (A2780 [6]): 31.7%; Activity (A2780 [7]): 6.3%; Activity (A2780 [12]): 61.7%; Activity (A2780 [13]): 9.9%; Activity (A2780 [14]): 14.6%; Activity (A2780 [15]): 13.7% |
| COC(=O)CNC(=O)CN(Cc1ccoc1)C(=O)[C@]12CCC(C)(C)C[C@H]1C1=CC[C@@H]3[C@@]4(C)CC[C@H](OC(C)=O)C(C)(C)[C@@H]4CC[C@@]3(C)[C@]1(C)CC2 | 14.3 µM | 7 µM | 6.5 µM | 3.5 µM | 6.5 µM | 5.9 µM | 8.9 µM | 2.5 |  |
